What was measured:
K-562 = test: NCI 60 cell line five dose, Leukemia
MOLT-4 = test: NCI 60 cell line five dose, Leukemia
RPMI-8226 = test: NCI 60 cell line five dose, Leukemia
LOX IMVI = test: NCI 60 cell line five dose, Melanoma
SK-MEL-2 = test: NCI 60 cell line five dose, Melanoma
SK-MEL-28 = test: NCI 60 cell line five dose, Melanoma
SK-MEL-5 = test: NCI 60 cell line five dose, Melanoma
SF-268 = test: NCI 60 cell line five dose, CNS Cancer
SF-539 = test: NCI 60 cell line five dose, CNS Cancer
COLO 205 = test: NCI 60 cell line five dose, Colon Cancer
HCC-2998 = test: NCI 60 cell line five dose, Colon Cancer
A498 = test: NCI 60 cell line five dose, Renal Cancer
TK-10 = test: NCI 60 cell line five dose, Renal Cancer
MDA-MB-231/ATCC = test: NCI 60 cell line five dose, Breast Cancer
HS 578T = test: NCI 60 cell line five dose, Breast Cancer; conditions: for Percent Growth: HS578T
T-47D = test: NCI 60 cell line five dose, Breast Cancer
OVCAR-4 = test: NCI 60 cell line five dose, Ovarian Cancer
OVCAR-8 = test: NCI 60 cell line five dose, Ovarian Cancer
DU-145 = test: NCI 60 cell line five dose, Prostate Cancer
NCI-H226 = test: NCI 60 cell line five dose, Non-Small Cell Lung Cancer
NCI-H23 = test: as above
NCI-H322M = test: as above
NCI-H522 = test: as above

## C=C1C(=O)O[C@H]2[C@H]1CC/C(COC(=O)NCCCCNC(=O)OC/C1=C/CC[C@@]3(C)O[C@H]3[C@H]3OC(=O)C(=C)[C@@H]3CC1)=C\CC[C@@]1(C)O[C@@H]21 [JVM 3-54, bis(((1aR,7aS,10aS,10bS,E)-1a-Methyl-8-methylene-9-oxo-1a,2,3,6,7,7a,8,9,10a,10b-decahydrooxireno[2′,3′:9,10]cyclodeca[1,2-b]furan-5-yl)methyl)butane-1,4-diyldicarbamate]
K-562
  GI50: 0.665 µM
  TGI: 10.4 µM
K-562; Log10 Concentration −4.0
  Percent Growth: −46%
K-562; Log10 Concentration −5.0
  Percent Growth: 1%
K-562; Log10 Concentration −6.0
  Percent Growth: 40%
K-562; Log10 Concentration −7.0
  Percent Growth: 96%
K-562; Log10 Concentration −8.0
  Percent Growth: 101%
K-562; read-out: LC50
  CC50: > 100 µM
MOLT-4
  GI50: 1.47 µM
  TGI: 4.15 µM
MOLT-4; Log10 Concentration −4.0
  Percent Growth: −41%
MOLT-4; Log10 Concentration −5.0
  Percent Growth: −42%
MOLT-4; Log10 Concentration −6.0
  Percent Growth: 68%
MOLT-4; Log10 Concentration −7.0
  Percent Growth: 98%
MOLT-4; Log10 Concentration −8.0
  Percent Growth: 98%
MOLT-4; read-out: LC50
  CC50: > 100 µM
RPMI-8226
  GI50: 0.547 µM
  TGI: 3.08 µM
RPMI-8226; Log10 Concentration −4.0
  Percent Growth: −42%
RPMI-8226; Log10 Concentration −5.0
  Percent Growth: −33%
RPMI-8226; Log10 Concentration −6.0
  Percent Growth: 31%
RPMI-8226; Log10 Concentration −7.0
  Percent Growth: 102%
RPMI-8226; Log10 Concentration −8.0
  Percent Growth: 101%
RPMI-8226; read-out: LC50
  CC50: > 100 µM
LOX IMVI
  GI50: 0.519 µM
  TGI: 1.92 µM
LOX IMVI; Log10 Concentration −4.0
  Percent Growth: −74%
LOX IMVI; Log10 Concentration −5.0
  Percent Growth: −84%
LOX IMVI; Log10 Concentration −6.0
  Percent Growth: 33%
LOX IMVI; Log10 Concentration −7.0
  Percent Growth: 93%
LOX IMVI; Log10 Concentration −8.0
  Percent Growth: 93%
LOX IMVI; read-out: LC50
  CC50: 5.15 µM
SK-MEL-2
  GI50: 1.77 µM
  TGI: 4.89 µM
SK-MEL-2; Log10 Concentration −4.0
  Percent Growth: −67%
SK-MEL-2; Log10 Concentration −5.0
  Percent Growth: −35%
SK-MEL-2; Log10 Concentration −6.0
  Percent Growth: 78%
SK-MEL-2; Log10 Concentration −7.0
  Percent Growth: 89%
SK-MEL-2; Log10 Concentration −8.0
  Percent Growth: 101%
SK-MEL-2; read-out: LC50
  CC50: 29.3 µM
SK-MEL-28
  GI50: 0.529 µM
  TGI: 2.3 µM
SK-MEL-28; Log10 Concentration −4.0
  Percent Growth: −73%
SK-MEL-28; Log10 Concentration −5.0
  Percent Growth: −58%
SK-MEL-28; Log10 Concentration −6.0
  Percent Growth: 33%
SK-MEL-28; Log10 Concentration −7.0
  Percent Growth: 94%
SK-MEL-28; Log10 Concentration −8.0
  Percent Growth: 100%
SK-MEL-28; read-out: LC50
  CC50: 8.08 µM
SK-MEL-5
  GI50: 3.33 µM
  TGI: 11.8 µM
SK-MEL-5; Log10 Concentration −4.0
  Percent Growth: −85%
SK-MEL-5; Log10 Concentration −5.0
  Percent Growth: 7%
SK-MEL-5; Log10 Concentration −6.0
  Percent Growth: 98%
SK-MEL-5; Log10 Concentration −7.0
  Percent Growth: 100%
SK-MEL-5; Log10 Concentration −8.0
  Percent Growth: 97%
SK-MEL-5; read-out: LC50, SK-MEL-6
  CC50: 41.4 µM
SF-268
  GI50: 3.18 µM
  TGI: 12.6 µM
SF-268; Log10 Concentration −4.0
  Percent Growth: −74%
SF-268; Log10 Concentration −5.0
  Percent Growth: 8%
SF-268; Log10 Concentration −6.0
  Percent Growth: 92%
SF-268; Log10 Concentration −7.0
  Percent Growth: 97%
SF-268; Log10 Concentration −8.0
  Percent Growth: 97%
SF-268; read-out: LC50
  CC50: 51 µM
SF-539
  GI50: 1.55 µM
  TGI: 3.71 µM
SF-539; Log10 Concentration −4.0
  Percent Growth: −100%
SF-539; Log10 Concentration −5.0
  Percent Growth: −57%
SF-539; Log10 Concentration −6.0
  Percent Growth: 75%
SF-539; Log10 Concentration −7.0
  Percent Growth: 93%
SF-539; Log10 Concentration −8.0
  Percent Growth: 103%
SF-539; read-out: LC50
  CC50: 8.84 µM
COLO 205
  GI50: 0.466 µM
  TGI: 1.8 µM
COLO 205; Log10 Concentration −4.0
  Percent Growth: −61%
COLO 205; Log10 Concentration −5.0
  Percent Growth: −73%
COLO 205; Log10 Concentration −6.0
  Percent Growth: 25%
COLO 205; Log10 Concentration −7.0
  Percent Growth: 100%
COLO 205; Log10 Concentration −8.0
  Percent Growth: 100%
COLO 205; read-out: LC50
  CC50: 5.79 µM
HCC-2998
  GI50: 2.35 µM
  TGI: 4.78 µM
HCC-2998; Log10 Concentration −4.0
  Percent Growth: −78%
HCC-2998; Log10 Concentration −5.0
  Percent Growth: −52%
HCC-2998; Log10 Concentration −6.0
  Percent Growth: 110%
HCC-2998; Log10 Concentration −7.0
  Percent Growth: 99%
HCC-2998; Log10 Concentration −8.0
  Percent Growth: 97%
HCC-2998; read-out: LC50
  CC50: 9.73 µM
A498
  GI50: 6.36 µM
  TGI: 18.9 µM
A498; Log10 Concentration −4.0
  Percent Growth: −99%
A498; Log10 Concentration −5.0
  Percent Growth: 38%
A498; Log10 Concentration −6.0
  Percent Growth: 99%
A498; Log10 Concentration −7.0
  Percent Growth: 94%
A498; Log10 Concentration −8.0
  Percent Growth: 97%
A498; read-out: LC50
  CC50: 43.9 µM
TK-10
  GI50: 1.61 µM
  TGI: 4.12 µM
TK-10; Log10 Concentration −4.0
  Percent Growth: −99%
TK-10; Log10 Concentration −5.0
  Percent Growth: −47%
TK-10; Log10 Concentration −6.0
  Percent Growth: 75%
TK-10; Log10 Concentration −7.0
  Percent Growth: 93%
TK-10; Log10 Concentration −8.0
  Percent Growth: 97%
TK-10; read-out: LC50
  CC50: 11.3 µM
MDA-MB-231/ATCC
  GI50: 1.53 µM
  TGI: 3.24 µM
MDA-MB-231/ATCC; Log10 Concentration −4.0
  Percent Growth: −85%
MDA-MB-231/ATCC; Log10 Concentration −5.0
  Percent Growth: −76%
MDA-MB-231/ATCC; Log10 Concentration −6.0
  Percent Growth: 79%
MDA-MB-231/ATCC; Log10 Concentration −7.0
  Percent Growth: 104%
MDA-MB-231/ATCC; Log10 Concentration −8.0
  Percent Growth: 103%
HS 578T; HS 578T
  GI50: 2.54 µM
  TGI: 8.14 µM
HS 578T; Log10 Concentration −4.0
  Percent Growth: −27%
HS 578T; Log10 Concentration −5.0
  Percent Growth: −9%
HS 578T; Log10 Concentration −6.0
  Percent Growth: 90%
HS 578T; Log10 Concentration −7.0
  Percent Growth: 92%
HS 578T; Log10 Concentration −8.0
  Percent Growth: 90%
T-47D
  GI50: 1.51 µM
  TGI: 4.17 µM
T-47D; Log10 Concentration −4.0
  Percent Growth: −32%
T-47D; Log10 Concentration −5.0
  Percent Growth: −43%
T-47D; Log10 Concentration −6.0
  Percent Growth: 70%
T-47D; Log10 Concentration −7.0
  Percent Growth: 93%
T-47D; Log10 Concentration −8.0
  Percent Growth: 95%
T-47D; read-out: LC50
  CC50: > 100 µM
OVCAR-4
  GI50: 1.77 µM
OVCAR-4; Log10 Concentration −4.0
  Percent Growth: −98%
OVCAR-4; Log10 Concentration −5.0
  Percent Growth: −5%
OVCAR-4; Log10 Concentration −6.0
  Percent Growth: 68%
OVCAR-4; Log10 Concentration −7.0
  Percent Growth: 82%
OVCAR-4; Log10 Concentration −8.0
  Percent Growth: 93%
OVCAR-4; read-out: LC50
  CC50: 30.5 µM
OVCAR-8
  GI50: 2.18 µM
  TGI: 8.26 µM
OVCAR-8; Log10 Concentration −4.0
  Percent Growth: −78%
OVCAR-8; Log10 Concentration −5.0
  Percent Growth: −7%
OVCAR-8; Log10 Concentration −6.0
  Percent Growth: 79%
OVCAR-8; Log10 Concentration −7.0
  Percent Growth: 99%
OVCAR-8; Log10 Concentration −8.0
  Percent Growth: 99%
OVCAR-8; read-out: LC50
  CC50: 40.2 µM
DU-145
  GI50: 3.21 µM
  TGI: 10.5 µM
DU-145; Log10 Concentration −4.0
  Percent Growth: −96%
DU-145; Log10 Concentration −5.0
  Percent Growth: 2%
DU-145; Log10 Concentration −6.0
  Percent Growth: 99%
DU-145; Log10 Concentration −7.0
  Percent Growth: 98%
DU-145; Log10 Concentration −8.0
  Percent Growth: 99%
DU-145; read-out: LC50
  CC50: 33.8 µM
NCI-H226
  GI50: 11.4 µM
  TGI: 30.5 µM
NCI-H226; Log10 Concentration −4.0
  Percent Growth: −60%
NCI-H226; Log10 Concentration −5.0
  Percent Growth: 57%
NCI-H226; Log10 Concentration −6.0
  Percent Growth: 100%
NCI-H226; Log10 Concentration −7.0
  Percent Growth: 97%
NCI-H226; Log10 Concentration −8.0
  Percent Growth: 98%
NCI-H226; read-out: LC50
  CC50: 81.6 µM
NCI-H23
  GI50: 2.18 µM
  TGI: 5.54 µM
NCI-H23; Log10 Concentration −4.0
  Percent Growth: −70%
NCI-H23; Log10 Concentration −5.0
  Percent Growth: 32%
NCI-H23; Log10 Concentration −6.0
  Percent Growth: 92%
NCI-H23; Log10 Concentration −7.0
  Percent Growth: 95%
NCI-H23; Log10 Concentration −8.0
  Percent Growth: 95%
NCI-H23; read-out: LC50
  CC50: 30.4 µM
NCI-H322M
  GI50: 12.6 µM
  TGI: 25.8 µM
NCI-H322M; Log10 Concentration −4.0
  Percent Growth: −94%
NCI-H322M; Log10 Concentration −5.0
  Percent Growth: 66%
NCI-H322M; Log10 Concentration −6.0
  Percent Growth: 104%
NCI-H322M; Log10 Concentration −7.0
  Percent Growth: 100%
NCI-H322M; Log10 Concentration −8.0
  Percent Growth: 100%
NCI-H322M; read-out: LC50
  CC50: 52.9 µM
NCI-H522
  GI50: 0.167 µM
  TGI: 0.375 µM
NCI-H522; Log10 Concentration −4.0
  Percent Growth: −71%
NCI-H522; Log10 Concentration −5.0
  Percent Growth: −75%
NCI-H522; Log10 Concentration −6.0
  Percent Growth: −60%
NCI-H522; Log10 Concentration −7.0
  Percent Growth: 82%
NCI-H522; Log10 Concentration −8.0
  Percent Growth: 95%
NCI-H522; read-out: LC50
  CC50: 0.845 µM

— patent US10118935B2, “Melampomagnolide B dimers” (priority 2014, dated 2018)
